Results from patent publication US6350251B1, “Biocidal locks” (Biolink Corporation, priority 2000, dated 2002).

How the values were obtained:
[1] = test system: S. epidermis; settings: cited from earlier work
[2] = test system: E. coli; settings: urine isolate of E. coli to human uroepithelial cells; concentration dependent; cited from earlier work
[3] = test system: Candida albicans; settings: oral isolate of Candida albicans to human buccal epithelial cells; concentration dependent; cited from earlier work
[4] = test system: Staphylococcus aureus; test: Inoculated DIALOCK port/catheter filled with lock solution, flush cultured on blood agar (Example 7); format: cell-based; set-up: key: TNTC: Too numerous to count; settings: inoculum 10 cfu/0.1 mL; 2% citrated taurolidine or 5000 U/mL heparin (with preservative); 37° C. for 72 hours
Experimental: (§1) Clinical blood isolates of coagulase negative staphylococcus, Candida albicans, Staphylococcus aureus, Enterococcus, and Pseudomonas aeruginosa were inoculated into trypticase soy broth and allowed to incubate at 37° C. until the cultures were visibly turbid. Serial dilutions were made to obtain a final cell density of 10 colony forming units (cfu)/0.1 mL for S. aureus, Enterococcus, and Pseudomonas aeruginosa; 5 cfu/0.1 mL for Candida; 100 cfu/0.1 mL for coagulase negative staph. and Enterobacter. From the final dilution, 0.1 mL was instilled into each distal end of a DIALOCK port tube, and the DIALOCK port was incubated at room temperature overnight. After incubation, a regular silicon catheter was placed on the distal end of both sides of each DIALOCK port. A solution of 5000 U/mL of heparin (with preservative) or 2% citrated taurolidine was instilled through the proximal end of the DIALOCK port to fill the DIALOCK port and catheter. The catheter was clamped and the DIALOCK port/catheter was incubated at 37° C. for 72 hours. Following this incubation, both catheters were removed from each DIALOCK port and each was flushed with 0.1 mL of nutrient broth.

[5] = test system: Enterobacter; test: as above; format: cell-based; set-up: key: TNTC: Too numerous to count; settings: inoculum 100 cfu/0.1 mL; 2% citrated taurolidine or 5000 U/mL heparin (with preservative); 37° C. for 72 hours
Experimental: as §1

[6] = test system: Pseudomonas aeruginosa; test: as above; format: cell-based; set-up: key: TNTC: Too numerous to count; settings: inoculum 10 cfu/0.1 mL; 2% citrated taurolidine or 5000 U/mL heparin (with preservative); 37° C. for 72 hours
Experimental: as §1

[7] = test system: Enterococcus; test: as above; format: cell-based; set-up: key: TNTC: Too numerous to count; settings: inoculum 10 cfu/0.1 mL; 2% citrated taurolidine or 5000 U/mL heparin (with preservative); 37° C. for 72 hours
Experimental: as §1

[8] = test system: Vancomycin-Internediate Susceptibility Staphylococcus A ureus (VISA) and Methicillin-Resistant Staphylococcus Aureus (MRSA); settings: range of from pH 7.0 to pH 5.0; cited from earlier work
[9] = test system: coagulase negative staphylococcus; test: Inoculated DIALOCK port/catheter filled with lock solution, flush cultured on blood agar (Example 7); format: cell-based; set-up: key to organisms remaining, DIALOCK port flush: TNTC: Too numerous to count; settings: inoculum 100 cfu/0.1 mL; 2% citrated taurolidine or 5000 U/mL heparin (with preservative); 37° C. for 72 hours
Experimental: as §1

[10] = test system: Candida albicans; test: as above; format: cell-based; set-up: key to organisms remaining, DIALOCK port flush: TNTC: Too numerous to count; settings: inoculum 5 cfu/0.1 mL; 2% citrated taurolidine or 5000 U/mL heparin (with preservative); 37° C. for 72 hours
Experimental: as §1

[11] = clinical, bacteriologic outcomes, endotoxemia, organ failure, 28-day mortality rate as end points; cited from earlier work
[12] = test system: B. fragilis; settings: mice, intravenous 0.2 mL of a 20% solution in sterile 5% polyvinyl pyrrolidone; intraperitoneal B. fragilis; cited from earlier work
[13] = test system: blood; test: Clotting of pig blood in containers holding taurolidine solution with or without ACD-A (Example 1); settings: pig blood filled up to 30 mL over 5, 10 or 15 mL 0.5% taurolidine in Ringer-lactate, or 5 mL taurolidine solution plus 2 mL ACD-A; inspected after 30 minutes
Experimental: A 0.5% solution of taurolidine in Ringer-lactate solution (Thomae, Biberach, Germany) was introduced into each of four polyethylene bottles having a 30 mL volume. Filling volumes were 5, 10, and 15 mL. One bottle was filled with 5 mL of the taurolidine solution and 2 mL ACD-A (Fresenius, Bad Homburg, Germany) solution. ACD-A solution is used for the conservation of whole blood and contains per liter: 22.0 grams of sodium citrate dihydrate, 7.3 grams of citric acid and 34.5 grams of glucose monohydrate.
Blood was collected at a slaughter house from a female pig directly from the slaughter wound into the containers that were then filled up to the 30 mL level. The containers were capped and gently moved to mix blood with the solution. The containers were inspected after 30 minutes. Blood in the containers containing only taurolidine was clotted, but the blood in the container containing the mixture of taurolidine and ACD-A was not clotted.

[14] = test system: E. coli; settings: mice, intravenous 0.2 mL of a 20% solution in sterile 5% polyvinyl pyrrolidone; intraperitoneal E. coli; cited from earlier work

Row | Compound | microbial anti-adherence activity [2] | microbial anti-adherence activity [3] | organisms remaining, Catheter flush [4] | organisms remaining, DIALOCK port flush [4] | organisms remaining, Catheter flush [5] | organisms remaining, DIALOCK port flush [5] | organisms remaining, Catheter flush [6] | organisms remaining, DIALOCK port flush [6] | organisms remaining, Catheter flush [7] | organisms remaining, DIALOCK port flush [7] | organisms remaining, Catheter flush [9] | organisms remaining, DIALOCK port flush [9] | organisms remaining, Catheter flush [10] | organisms remaining, DIALOCK port flush [10] | other results
1 | CN[C@H](CC(C)C)C(=O)N[C@H]1C(=O)N[C@@H](CC(N)=O)C(=O)N[C@H]2C(=O)N[C@H]3C(=O)N[C@H](C(=O)N[C@H](C(=O)O)c4cc(O)cc(O)c4-c4cc3ccc4O)[C@H](O)c3ccc(c(Cl)c3)Oc3cc2cc(c3O[C@@H]2O[C@H](CO)[C@@H](O)[C@H](O)[C@H]2O[C@H]2C[C@](C)(N)[C@H](O)[C@H](C)O2)Oc2ccc(cc2Cl)[C@H]1O [Vancomycin] | – | – | – | – | – | – | – | – | – | – | – | – | – | – | dose found to be bactericidal ([1]; initial inocula of 10^3 CFU/mL): 6.7 µg/mL
2 | [H]/N=C(\N/C(=N/[H])NCCCCCCNC(=N)NC(=N)Nc1ccc(Cl)cc1)Nc1ccc(Cl)cc1 [chlorhexidine] | significant anti-adherence activity | significant anti-adherence activity | – | – | – | – | – | – | – | – | – | – | – | – | –
3 | O=C([O-])CN(CCN(CC(=O)[O-])CC(=O)O)CC(=O)O.[Na+].[Na+] [disodium EDTA] | – | – | – | – | – | – | – | – | – | – | – | – | – | – | concentration shown to be bactericidal ([1]; initial inoculum of 10^3 CFU of staphylococci per mL, in 24 hours): 20 mg/mL
4 | O=S1(=O)CCN(CN2CCS(=O)(=O)NC2)CN1 [taurolidine, bis-(1,1-dioxo-perhydroxy-1,2,4-thiadiazin-4-yl)methane] | significant anti-adherence activity | significant anti-adherence activity | No growth | No growth | No growth | No growth | No growth** | No growth | No growth | No growth | No growth | No growth | No growth* | No growth | taurolidine activity versus pH [8]: increases with decreasing pH; therapeutic effect on the outcome of patients with sepsis syndrome [11]: no beneficial therapeutic effect; mortality rate [12]: very significantly reduce the mortality rate; state of blood in the containers [13]: clotted; mortality rate [14]: very significantly reduce the mortality rate
5 | Heparin | – | – | TNTC | TNTC | TNTC | TNTC | TNTC | TNTC | TNTC | TNTC | No growth | TNTC | 20 cfu | TNTC | inhibition of growth of S. epidermis ([1]; isolate from the catheter of an infected patient): does not inhibit the growth
6 | povidone-iodine | significant anti-adherence activity | significant anti-adherence activity | – | – | – | – | – | – | – | – | – | – | – | – | –
